{"source": "patent US20060241177A1", "about": "“Novel compounds, pharmaceutical compositions containing same, and methods of use for same” (priority 2002, published 2006)", "key": {"[1]": {"target": "viral HIV protease (Human immunodeficiency virus type 1 group M subtype B, UniProt P04585)", "conditions": "Moelling et al. 1990; cited from earlier work"}, "[2]": {"system": "Raji cells", "conditions": "Tomoda et al. 1991; cited from earlier work"}, "[3]": {"target": "rat liver acyl-CoA synthetase", "conditions": "Tomoda et al. 1987; Omura et al. 1986; read-out: 50% inhibition of rat liver acyl-CoA synthetase; cited from earlier work"}, "[4]": {"system": "HCT-116 human colon cancer xenografts", "assay": "In vivo anti-tumor test, HCT-116 subcutaneous flank xenografts", "set-up": "species or system nu/nu female mice", "conditions": "10 mg/kg i.p. repeated, 11 treated animals, day 10, from repeated i.p. injection", "procedure": "In Vivo Testing for Anti-Tumor Activity\nSubcutaneous flank xenografts of the human colon cancer cell line, HCT-116 in nu/nu female mice (Harlan) were used to study the anti-tumor effects of Compound 1 in vivo. All animal experiments complied with institutional animal care guidelines. 10^7 HCT-116 cells (˜0.1 ml packed cells) were xenografted from culture in DMEM supplemented with 10% FBS into […]. Treatment began when measurable tumors developed about 3 days after inoculation. Compound 1 (10 mg/kg) was diluted into 40 μl DMSO and treated intraperitoneally (i.p.) 11 animals received JMM-III-231 10 mg/kg, i.p., at days indicated by arrows, and 11 received DMSO control. Tumors were measured on days indicated. […] Error bars represent standard error of the mean."}}}
{"smiles": "C/C=C/C/C=C/CCC(=O)[C@H]1O[C@H]1C(N)=O", "note": "[cerulenin, (2S,3R)-2,3-epoxy-4-oxo-7,10 dodecadienoyl amide]", "values": [{"measurement": "concentration for inhibition of viral HIV protease", "setting": "[1]", "value": 5, "unit": "mg/mL"}]}
{"smiles": "CCCC=CCC=CC=CC=NN=NO", "note": "[Triacsin C, 1-hydroxy-3-(E, E, E-2′,4′,7′-undecatrienylidine) triazene]", "values": [{"measurement": "concentration causing growth inhibition in Raji cells", "setting": "[2]", "value": 1.0, "unit": "µM"}, {"measurement": "IC50", "setting": "[3]", "value": 8.7, "unit": "µM"}]}
{"smiles": "C=CCNC(=O)C1C(=C)C(=O)O[C@H]1CCCCCCCC", "note": "(mixture of isomers) [Compound 1, (±)-α-Methylene-γ-butyrolactone-5-octyl-4-allyl amide]", "values": [{"measurement": "Death of treated mice in xenograft study", "setting": "[4]", "value": "One Compound 1 treated mouse died on day 10"}]}
